From publication PMC4965013, “Open Source Drug Discovery with the Malaria Box Compound Collection for Neglected Diseases and Beyond” (PLoS Pathogens, 2016)
pEC50: −log10 of the molar value. Each block holds one compound with its values, some of them ahead of it.

Tests used:
P. falciparum = test: EC50 listed in S2 Table Metabolomics (used to set the concentration tested); format: cell-based; conditions: Plasmodium falciparum; EC50 used for Factor_XEC50 in metabolomics; read-out: EC50_nM
[1] = test system: P. falciparum 3D7 trophozoites; test: Metabolomic fingerprint profiling LC-MS; format: cell-based, Plasmodium falciparum; parameters: UDP-D-glucose / ADP-D-glucose: unit not given here; conditions: for Acetyllysine / N-acetyl-L-ornithine / N-carbamoyl-L-aspartate / NADPH / dAMP / dCMP / dTDP / dTMP / dTTP / dihydroorotate / orotate / DLH / DLS/SDL/SID / PD / PEE / PVNF / 3-phosphoglycerate / ADP-D-glucose / ATP / CDP / D-sedoheptulose-1/7-phosphate / FAD / GMP / NAD+ / NADP+ / Octoluse Bisphosphate / Pyroglutamic acid / UDP-D-glucose / UDP-D-glucuronate / UDP-N-acetyl-glucosamine / UDP / UMP / UTP / a-ketoglutarate / citrate/isocitrate / cytidine / dATP / dGMP/AMP / fumarate / glucose-1/6-phosphate / glycerate / guanine / guanosine / hypoxanthine / indole / inosine / nicotinate / ornithine / phosphoenolpyruvate / pyruvate / ribose-phosphate / sarcosine/alanine / sn-glycerol-3-phosphate / succinate/methylmalonic acid / uridine / xanthosine: S2 Table Metabolomics; for Acetyllysine: metabolite Acetyllysine; for N-acetyl-L-ornithine: metabolite N-acetyl-L-ornithine; for N-carbamoyl-L-aspartate: metabolite N-carbamoyl-L-aspartate; for NADPH: metabolite NADPH; for dAMP: metabolite dAMP; for dCMP: metabolite dCMP; for dTDP: metabolite dTDP; for dTMP: metabolite dTMP; for dTTP: metabolite dTTP; for dihydroorotate: metabolite dihydroorotate; for orotate: metabolite orotate; for DLH: peptide DLH; for DLS/SDL/SID: peptide DLS/SDL/SID; for PD: peptide PD; for PEE: peptide PEE; for PVNF: peptide PVNF; for 3-phosphoglycerate: metabolite 3-phosphoglycerate; for ADP-D-glucose: metabolite ADP-D-glucose; for ATP: metabolite ATP; for CDP: metabolite CDP; for CDP / D-sedoheptulose-1/7-phosphate / GMP / Octoluse Bisphosphate / UDP / UMP / UTP / citrate/isocitrate / dGMP/AMP / fumarate / glucose-1/6-phosphate / glycerate / guanine / guanosine / inosine / pyruvate / sarcosine/alanine / succinate/methylmalonic acid / uridine / xanthosine: change in metabolite level after compound treatment; for D-sedoheptulose-1/7-phosphate: metabolite D-sedoheptulose-1/7-phosphate; for FAD: metabolite FAD; for GMP: metabolite GMP; for NAD+: metabolite NAD+; for NADP+: metabolite NADP+; for Octoluse Bisphosphate: metabolite Octoluse Bisphosphate; for Pyroglutamic acid: metabolite Pyroglutamic acid; for UDP-D-glucose: metabolite UDP-D-glucose; for UDP-D-glucuronate: metabolite UDP-D-glucuronate; for UDP-N-acetyl-glucosamine: metabolite UDP-N-acetyl-glucosamine; for UDP: metabolite UDP; for UMP: metabolite UMP; for UTP: metabolite UTP; for a-ketoglutarate: metabolite a-ketoglutarate; for citrate/isocitrate: metabolite citrate/isocitrate; for cytidine: metabolite cytidine; for dATP: metabolite dATP; for dGMP/AMP: metabolite dGMP/AMP; for fumarate: metabolite fumarate; for glucose-1/6-phosphate: metabolite glucose-1/6-phosphate; for glycerate: metabolite glycerate; for guanine: metabolite guanine; for guanosine: metabolite guanosine; for hypoxanthine: metabolite hypoxanthine; for indole: metabolite indole; for inosine: metabolite inosine; for 2_3-Diphosphoglyceric acid / 4-phosphopantothenate / 6-phospho-D-gluconate / FMN / IMP / Pyrophosphate / Sedoheptoluse bisphosphate / cyclic-AMP / glutathione disulfide / lactate / myo-inositol: metabolite level change after treatment; for nicotinate: metabolite nicotinate; for ornithine: metabolite ornithine; for phosphoenolpyruvate: metabolite phosphoenolpyruvate; for pyruvate: metabolite pyruvate; for ribose-phosphate: metabolite ribose-phosphate; for sarcosine/alanine: metabolite sarcosine/alanine; for sn-glycerol-3-phosphate: metabolite sn-glycerol-3-phosphate; for succinate/methylmalonic acid: metabolite succinate/methylmalonic acid; for uridine: metabolite uridine; for xanthosine: metabolite xanthosine

pEC50 (P. falciparum): 6.55
Structure (SMILES): Cc1ccc(N2C(=O)C3C(C2=O)C2(c4ccccc4)C(=O)C3(c3ccccc3)C(c3ccccc3)=C2c2ccccc2)cc1 (stereo not shown) [MMV666062]
Acetyllysine [1]: -0.1709
N-acetyl-L-ornithine [1]: -0.324
N-carbamoyl-L-aspartate [1]: -0.2951
NADPH [1]: -0.2149
dAMP [1]: -0.4875
dCMP [1]: -0.7263
dTDP [1]: -0.1985
dTMP [1]: -0.6991
dTTP [1]: -0.2344
dihydroorotate [1]: -0.213
orotate [1]: -0.7199
DLH [1]: -0.006238
DLS/SDL/SID [1]: -0.3315
PD [1]: -0.3487
PEE [1]: -0.01834
PVNF [1]: -0.09341
3-phosphoglycerate [1]: -1.0087
ADP-D-glucose [1]: -0.2764
ATP [1]: -0.1502
CDP [1]: -0.3978
D-sedoheptulose-1/7-phosphate [1]: -0.4359
FAD [1]: -0.2118
GMP [1]: -0.3584
NAD+ [1]: -0.2488
NADP+ [1]: -0.1786
Octoluse Bisphosphate [1]: -0.3963
Pyroglutamic acid [1]: -0.08618
UDP-D-glucose [1]: -0.2942
UDP-D-glucuronate [1]: -0.1481
UDP-N-acetyl-glucosamine [1]: -0.3667
UDP [1]: -0.4806
UMP [1]: -0.3962
UTP [1]: -0.1426
a-ketoglutarate [1]: -0.4814
citrate/isocitrate [1]: -0.07191
cytidine [1]: -0.4412
dATP [1]: -0.199
dGMP/AMP [1]: -0.7601
fumarate [1]: -0.1898
glucose-1/6-phosphate [1]: 0.1468
glycerate [1]: -0.3247
guanine [1]: -0.8033
guanosine [1]: -0.4206
hypoxanthine [1]: -0.5014
indole [1]: -0.4173
inosine [1]: -0.516
2_3-Diphosphoglyceric acid [1]: -0.1968
4-phosphopantothenate [1]: -0.3798
6-phospho-D-gluconate [1]: -0.105
FMN [1]: -0.4755
IMP [1]: -0.5384
Pyrophosphate [1]: -0.0001746
Sedoheptoluse bisphosphate [1]: -0.4955
cyclic-AMP [1]: -0.438
glutathione disulfide [1]: -0.4046
lactate [1]: -0.3401
myo-inositol [1]: 0.6705
nicotinate [1]: -0.6806
ornithine [1]: -0.4373
phosphoenolpyruvate [1]: -0.3807
pyruvate [1]: -0.5819
ribose-phosphate [1]: -0.7488
sarcosine/alanine [1]: -0.5636
sn-glycerol-3-phosphate [1]: -0.1452
succinate/methylmalonic acid [1]: -0.2494
uridine [1]: -0.8945
xanthosine [1]: -0.2816

pEC50 (P. falciparum): 6.43
Structure (SMILES): CCOc1cc2c(cc1OCC)C(c1cc(OC)c(O)cc1Cl)NCC2 (stereo not shown) [MMV008956]
Acetyllysine [1]: -0.8944
N-acetyl-L-ornithine [1]: -0.5916
N-carbamoyl-L-aspartate [1]: 0.571
NADPH [1]: 0.6672
dAMP [1]: 1.243
dCMP [1]: 4.619
dTDP [1]: 1.146
dTMP [1]: 1.439
dTTP [1]: 1.156
dihydroorotate [1]: 1.1855
orotate [1]: -0.3284
DLH [1]: -3.711
DLS/SDL/SID [1]: -0.5828
PD [1]: -0.4938
PEE [1]: -0.813
PVNF [1]: -0.872
3-phosphoglycerate [1]: 0.6004
ADP-D-glucose [1]: 0.1393
ATP [1]: 0.8747
CDP [1]: 1.061
D-sedoheptulose-1/7-phosphate [1]: 0.1684
FAD [1]: 0.6779
GMP [1]: -0.4979
NAD+ [1]: 0.03875
NADP+ [1]: 0.5626
Octoluse Bisphosphate [1]: 0.08662
Pyroglutamic acid [1]: 0.4321
UDP-D-glucose [1]: 0.1438
UDP-D-glucuronate [1]: 0.2178
UDP-N-acetyl-glucosamine [1]: 0.5265
UDP [1]: 1.214
UMP [1]: 0.03068
UTP [1]: 0.582
a-ketoglutarate [1]: -0.2514
citrate/isocitrate [1]: -0.7004
cytidine [1]: 0.5985
dATP [1]: 0.6577
dGMP/AMP [1]: 0.5512
fumarate [1]: -0.2713
glucose-1/6-phosphate [1]: 2.3505
glycerate [1]: 0.6776
guanine [1]: 0.5662
guanosine [1]: -1.286
hypoxanthine [1]: 0.3973
indole [1]: -0.009638
inosine [1]: -0.3408
2_3-Diphosphoglyceric acid [1]: 1.008
4-phosphopantothenate [1]: 0.721
6-phospho-D-gluconate [1]: 0.8262
FMN [1]: 0.6429
IMP [1]: 0.4913
Pyrophosphate [1]: -0.1587
Sedoheptoluse bisphosphate [1]: 0.3697
cyclic-AMP [1]: 0.7848
glutathione disulfide [1]: 0.5413
lactate [1]: 1.983
myo-inositol [1]: 3.051
nicotinate [1]: 0.3445
ornithine [1]: -0.06192
phosphoenolpyruvate [1]: 0.186
pyruvate [1]: 0.4759
ribose-phosphate [1]: 0.1544
sarcosine/alanine [1]: -0.3792
sn-glycerol-3-phosphate [1]: 0.3263
succinate/methylmalonic acid [1]: -0.2652
uridine [1]: 0.5193
xanthosine [1]: -1.526
